{"source": "patent US20170368082A1", "about": "“FORMULATIONS OF BRINCIDOFOVIR” (priority 2016, published 2017)", "test": "Tissue distribution by quantitative whole-body autoradiography (QWBA)", "assay_type": "in vivo, male Sprague Dawley and Long-Evans rats", "conditions": "for AUCall Ratio (PO/IV) / Cmax Ratio (PO/IV): 15 mg/kg, Group 7 vs Group 4", "experimental": "The study utilized 4 groups of male SD rats (albino), and 3 groups of male LE rats (pigmented); a total of 39 rats. All animals were obtained from Hilltop Lab Animals, Inc. (Scottdale, Pa.). […] Rats in Group 5 were administered a single 2-h IV infusion of [^14C]brincidofovir at a target dose of 2 mg/kg. […] Three dosing formulations (one for high dose IV, one for low dose IV, and one for PO dose) were prepared at QPS on the day of dosing. The IV formulation for Groups 1, 2, 3, and 4 contained a vehicle of 10 mM sodium phosphate buffer in 5% dextrose solution at pH 8.0(±0.1).\nEach animal, at their respective termination time points, was euthanized for QWBA analysis immediately after blood collection. One rat per time point per Group was euthanized as listed below.\nThe blood samples were maintained on wet ice (approximately 4° C.) and then centrifuged to obtain plasma within 1 h of the blood collection time. Centrifuge settings were recorded in the study notebook. Duplicate aliquots of plasma (0.050 mL) were analyzed for radioactivity using direct counting by LSC, and residual plasma was stored at approximately −70° C. and was saved for possible future analysis under a separate study protocol. Residual red blood cells were discarded as radioactive waste.\nThe pinna, distal limbs, hair, and tail were removed from each frozen carcass and each frozen carcass was embedded in an aqueous suspension of approximately 2% (w/v) carboxymethylcellulose and frozen into a block. The blocks were stored at approximately −20° C. prior to sectioning. Each blocked carcass was mounted on the object stage of a cryomicrotome (Leica CM3600 Cryomacrocut, Nussloch, Germany and Vibratome 9800, St. Louis, Mo.) maintained at approximately −20° C. and internal standards (3), which were plasma fortified with [^14C]-glucose at one concentration (approximately 0.05 μCi/mL), were placed into the frozen blocks, prior to sectioning, and were used for section thickness quality control. A number of whole-body sections (approximately 40 μm thick) were taken in the sagittal plane at various levels of interest using a whole-body cryomicrotome set at −20° C. Sagittal sections (20-50 μm thick) of frozen carcasses were exposed to phosphor imaging plates. Regions of images in tissues were converted to concentrations using standards. All of the major tissues, organs, and biological fluids were represented.\nTissue concentration data was determined for the following tissues and/or contents: adipose (brown and white), adrenal gland, bile (in duct), blood (cardiac), bone, bone marrow, brain (cerebrum, cerebellum, medulla), cecum (and contents), large intestine (and contents), epididymis, esophagus, eye (uvea and lens), Harderian gland, heart, kidney (cortex and medulla), liver, lung, lymph node, pancreas, pituitary gland, prostate gland, salivary gland, seminal vesicles, skeletal muscle, skin (pigmented and non-pigmented), small intestine (and contents), stomach (gastric mucosa and contents), spleen, spinal cord, testis, thymus, thyroid, and urinary bladder (and contents).\nThe imaging plate and sections were placed in light-tight exposure cassettes, in a copper-lined lead safe, for a 4-day exposure at room temperature. […] Quantification was performed by image densitometry using MCD image analysis software (v. 7.0, Interfocus Imaging Ltd) and a standard curve constructed from the integrated response [i.e., Molecular Dynamics Counts per square millimeter (MDC/mm^2)] and the nominal concentrations of the ^14C-calibration standards. The concentrations of radioactivity were expressed as the μg equivalents of [^14C]brincidofovir per gram sample (μg equiv/g). A lower limit of quantification (LLOQ) was applied to the data (See section 6.7.4).\nTissue concentrations that fell below the LLOQ were identified as being below the quantification limit (BQL). Tissue areas that were not visualized on autoradiographic images were identified as no sample (NS) and reported as BQL.", "data": [{"smiles": "CCCCCCCCCCCCCCCCOCCCOP(=O)(O)CO[C@H](CO)Cn1ccc(N)nc1=O", "note": "[[^14C] brincidofovir]", "values": [{"measurement": "AUCall", "setting": "Cecum, 2 h IV infusion 15 mg/kg, Group 4", "result": 360.7580, "unit": "μg equiv · h/g"}, {"measurement": "Tissue Concentration (168 h)", "setting": "Cecum, 2 h IV infusion 15 mg/kg, Group 4, LLOQ 0.036", "result": 0.08, "unit": "μg equiv/g"}, {"measurement": "Tissue Concentration (168 h)", "setting": "Cecum, PO 15 mg/kg, Group 7, LLOQ 0.034", "result": 0.137, "unit": "μg equiv/g"}, {"measurement": "AUCall", "setting": "Cecum, PO 15 mg/kg, Group 7", "result": 174.4118, "unit": "μg equiv · h/g"}, {"measurement": "AUCall Ratio (PO/IV)", "setting": "Epididymis", "result": 0.33}, {"measurement": "Cmax Ratio (PO/IV)", "setting": "Epididymis", "result": 0.16}, {"measurement": "AUCall", "setting": "Epididymis, 2 h IV infusion 15 mg/kg, Group 4", "result": 95.0160, "unit": "μg equiv · h/g"}, {"measurement": "Tissue Concentration (168 h)", "setting": "Epididymis, 2 h IV infusion 15 mg/kg, Group 4, LLOQ 0.036", "result": 0.129, "unit": "μg equiv/g"}, {"measurement": "Tissue Concentration (168 h)", "setting": "Epididymis, PO 15 mg/kg, Group 7, LLOQ 0.034", "result": 0.042, "unit": "μg equiv/g"}, {"measurement": "AUCall", "setting": "Epididymis, PO 15 mg/kg, Group 7", "result": 31.1150, "unit": "μg equiv · h/g"}, {"measurement": "AUCall Ratio (PO/IV)", "setting": "Esophagus", "result": 0.38}, {"measurement": "Cmax Ratio (PO/IV)", "setting": "Esophagus", "result": 1.89}, {"measurement": "AUCall", "setting": "Esophagus, 2 h IV infusion 15 mg/kg, Group 4", "result": 73.1850, "unit": "μg equiv · h/g"}, {"measurement": "Tissue Concentration (168 h)", "setting": "Esophagus, 2 h IV infusion 15 mg/kg, Group 4, LLOQ 0.036", "result": 0.041, "unit": "μg equiv/g"}, {"measurement": "Tissue Concentration (168 h)", "setting": "Esophagus, PO 15 mg/kg, Group 7, LLOQ 0.034", "result": "BQL"}, {"measurement": "AUCall", "setting": "Esophagus, PO 15 mg/kg, Group 7", "result": 27.9015, "unit": "μg equiv · h/g"}, {"measurement": "AUCall", "setting": "Eye (lens), 2 h IV infusion 15 mg/kg, Group 4", "result": 0.1545, "unit": "μg equiv · h/g"}, {"measurement": "Tissue Concentration (168 h)", "setting": "Eye (lens), 2 h IV infusion 15 mg/kg, Group 4, LLOQ 0.036", "result": "BQL"}, {"measurement": "Tissue Concentration (168 h)", "setting": "Eye (lens), PO 15 mg/kg, Group 7, LLOQ 0.034", "result": "BQL"}, {"measurement": "AUCall Ratio (PO/IV)", "setting": "Eye (uveal tract)", "result": 0.32}, {"measurement": "Cmax Ratio (PO/IV)", "setting": "Eye (uveal tract)", "result": 0.43}, {"measurement": "AUCall", "setting": "Eye (uveal tract), 2 h IV infusion 15 mg/kg, Group 4", "result": 51.5575, "unit": "μg equiv · h/g"}, {"measurement": "Tissue Concentration (168 h)", "setting": "Eye (uveal tract), 2 h IV infusion 15 mg/kg, Group 4, LLOQ 0.036", "result": "BQL"}, {"measurement": "Tissue Concentration (168 h)", "setting": "Eye (uveal tract), PO 15 mg/kg, Group 7, LLOQ 0.034", "result": "BQL"}, {"measurement": "AUCall", "setting": "Eye (uveal tract), PO 15 mg/kg, Group 7", "result": 16.2765, "unit": "μg equiv · h/g"}, {"measurement": "AUCall Ratio (PO/IV)", "setting": "Harderian Gland", "result": 0.25}, {"measurement": "Cmax Ratio (PO/IV)", "setting": "Harderian Gland", "result": 0.12}, {"measurement": "AUCall", "setting": "Harderian Gland, 2 h IV infusion 15 mg/kg, Group 4", "result": 257.6905, "unit": "μg equiv · h/g"}, {"measurement": "Tissue Concentration (168 h)", "setting": "Harderian Gland, 2 h IV infusion 15 mg/kg, Group 4, LLOQ 0.036", "result": 0.403, "unit": "μg equiv/g"}, {"measurement": "Tissue Concentration (168 h)", "setting": "Harderian Gland, PO 15 mg/kg, Group 7, LLOQ 0.034", "result": 0.11, "unit": "μg equiv/g"}, {"measurement": "AUCall", "setting": "Harderian Gland, PO 15 mg/kg, Group 7", "result": 63.7645, "unit": "μg equiv · h/g"}, {"measurement": "AUCall Ratio (PO/IV)", "setting": "Heart", "result": 0.54}, {"measurement": "Cmax Ratio (PO/IV)", "setting": "Heart", "result": 0.15}, {"measurement": "AUCall", "setting": "Heart, 2 h IV infusion 15 mg/kg, Group 4", "result": 58.1205, "unit": "μg equiv · h/g"}, {"measurement": "Tissue Concentration (168 h)", "setting": "Heart, 2 h IV infusion 15 mg/kg, Group 4, LLOQ 0.036", "result": 0.062, "unit": "μg equiv/g"}, {"measurement": "Tissue Concentration (168 h)", "setting": "Heart, PO 15 mg/kg, Group 7, LLOQ 0.034", "result": 0.045, "unit": "μg equiv/g"}, {"measurement": "AUCall", "setting": "Heart, PO 15 mg/kg, Group 7", "result": 31.1603, "unit": "μg equiv · h/g"}, {"measurement": "AUCall Ratio (PO/IV)", "setting": "Kidney Cortex", "result": 0.42}, {"measurement": "Cmax Ratio (PO/IV)", "setting": "Kidney Cortex", "result": 0.18}, {"measurement": "AUCall", "setting": "Kidney Cortex, 2 h IV infusion 15 mg/kg, Group 4", "result": 1919.6850, "unit": "μg equiv · h/g"}, {"measurement": "Tissue Concentration (168 h)", "setting": "Kidney Cortex, 2 h IV infusion 15 mg/kg, Group 4, LLOQ 0.036", "result": 0.33, "unit": "μg equiv/g"}, {"measurement": "Tissue Concentration (168 h)", "setting": "Kidney Cortex, PO 15 mg/kg, Group 7, LLOQ 0.034", "result": 0.342, "unit": "μg equiv/g"}, {"measurement": "AUCall", "setting": "Kidney Cortex, PO 15 mg/kg, Group 7", "result": 804.4980, "unit": "μg equiv · h/g"}, {"measurement": "AUCall Ratio (PO/IV)", "setting": "Kidney Medulla", "result": 0.48}, {"measurement": "Cmax Ratio (PO/IV)", "setting": "Kidney Medulla", "result": 0.34}, {"measurement": "AUCall", "setting": "Kidney Medulla, 2 h IV infusion 15 mg/kg, Group 4", "result": 717.8445, "unit": "μg equiv · h/g"}, {"measurement": "Tissue Concentration (168 h)", "setting": "Kidney Medulla, 2 h IV infusion 15 mg/kg, Group 4, LLOQ 0.036", "result": 0.138, "unit": "μg equiv/g"}, {"measurement": "Tissue Concentration (168 h)", "setting": "Kidney Medulla, PO 15 mg/kg, Group 7, LLOQ 0.034", "result": 0.201, "unit": "μg equiv/g"}, {"measurement": "AUCall", "setting": "Kidney Medulla, PO 15 mg/kg, Group 7", "result": 342.0130, "unit": "μg equiv · h/g"}, {"measurement": "AUCall Ratio (PO/IV)", "setting": "Large Intestine", "result": 0.45}, {"measurement": "Cmax Ratio (PO/IV)", "setting": "Large Intestine", "result": 0.61}, {"measurement": "AUCall", "setting": "Large Intestine, 2 h IV infusion 15 mg/kg, Group 4", "result": 310.7965, "unit": "μg equiv · h/g"}, {"measurement": "Tissue Concentration (168 h)", "setting": "Large Intestine, 2 h IV infusion 15 mg/kg, Group 4, LLOQ 0.036", "result": 0.103, "unit": "μg equiv/g"}, {"measurement": "Tissue Concentration (168 h)", "setting": "Large Intestine, PO 15 mg/kg, Group 7, LLOQ 0.034", "result": 0.06, "unit": "μg equiv/g"}, {"measurement": "AUCall", "setting": "Large Intestine, PO 15 mg/kg, Group 7", "result": 140.3313, "unit": "μg equiv · h/g"}, {"measurement": "AUCall Ratio (PO/IV)", "setting": "Liver", "result": 0.66}]}]}
